Measured values published in US20110257146A1, “Method of Treating Kcnq Related Disorders Using Organozinc Compounds” (The johns Hopkins University, priority 2006, published 2011).
Entries after “also recorded” stand apart in the source; their conditions may differ.

Columns and labels:
[1] = molecular target: T1, human ether-a-go-go related gene (hERG) (Homo sapiens, UniProt Q12809); assay type: cell-based
T1 construct: expressed in transfected cells
Protocol: (§1) Cell culture and transient transfection—Chinese Hamster Ovary (CHO) cells were grown in 50/50 DMEM/F12 (Cellgro) with 10% FBS (Gibco), 100 U/ml penicillin (Cellgro), 100 μg/ml streptomycin (Cellgro) and 2 mM L-glutamine (Gibco). At 24 hours before transfection, cells were split and plated in 60 mm dishes and were transfected with Lipofectamine2000™ reagent (Invitrogen) according to the manufacturer's instruction. At 24 hours after transfection, cells were split and re-plated onto coverslips coated with poly-L-lysine (Sigma). Plasmid expressing CD4 cDNA as a marker was cotransfected with the channel cDNAs of hKCNQ1 (from Dr. Michael Sanguinetti), hKCNQ4 (from Dr. Vitya Vardanyan), rKCNQ2, rKCNQ3, and hKCNQ5 (from Drs. David McKinnon, Mark Shapiro, and Thomas Jentsch). Prior to recording, anti-CD4 Dynabeads (Dynal. Biotech. Inc.) were added into the medium to allow for identification of the transfected cells. Stable lines expressing Kv2.1, hERG, and Kv4.2 were generated by standard protocols using pcDNA3.1 and maintained at complete medium supplemented with 500 μg/ml G418. […]
(§2) Electrophysiological Recording—Standard whole-cell recording was used. […] Current and voltage were recorded using an Axopatch-200A amplifier, filtered at 1 kHz and digitized using a DigiData 1322A with pClamp 9.2 software (Axon Instruments, Foster City, Calif.). […]

N-type calcium channel = molecular target: T2, N-type calcium channel (Homo sapiens, UniProt Q00975); assay: Channel activity in N-type calcium channel stable line; assay type: cell-based
T2 construct: expressed in transfected cells; Diane Lipscombe and David Yue
Protocol: as §1, §2

KCNQ4 = molecular target: T3, KCNQ4 (Homo sapiens, UniProt P56696); assay: Whole-cell voltage clamp of CHO cells expressing KCNQ4; assay type: cell-based; conditions: 10 μM ZnPy, extracellular
T3 construct: expressed in transfected cells; host or cells: CHO cells
Protocol: as §1, §2

KCNQ2 (W236L) = molecular target: T4, KCNQ2 (W236L) (Rattus norvegicus, UniProt O88943, W236L); assay: Whole-cell recording of KCNQ2 (W236L) mutant; assay type: cell-based; conditions: 2.5 μM ZnPy, −30 mV or +50 mV
T4 construct: expressed in transfected cells
Protocol: FIG. 8. Differential modulatory sites on KCNQ channel by ZnPy and retigabine. A. Left Panel. Representative KCNQ2 current was recorded with intracellular pipet solution supplemented with 10 μM ZnPy. The overlapping external application of ZnPy is as shown. Right Panel. G-V curves at different indicated recording times (0 to 12 minutes) upon establishing stable seal are shown. The intracellular perfusion (with or without EGTA) was first calibrated by using compatible molecular weight dye. […] The levels of current potentiation at +50 mV and −30 mV were calculated by Idrug/Icontrol, and shown as indicated (n≧4, *p<0.001).
(§3) Mutagenesis—Starting from KCNQ cDNAs, the KCNQ2 point mutants were constructed by recombinant PCR and verified by sequencing.
Electrophysiological Recording—Standard whole-cell recording was used. Pipettes were pulled from borosilicate glass capillaries (TW150-4, World Precision Instruments, Sarasota, Fla.). When filled with the intracellular solution, the pipettes have resistances of […]. During the recording, constant perfusion of extracellular solution was maintained using a BPS perfusion system (ALA, Westbury, N.Y.). […] Current and voltage were recorded using an Axopatch-200A amplifier, filtered at 1 kHz and digitized using a DigiData 1322A with pClamp 9.2 software (Axon Instruments, Foster City, Calif.). […]

[2] = Rat model of severe global ischemia; conditions: in vivo
KCNQ2(A306T) = molecular target: T5, KCNQ2(A306T) (Rattus norvegicus, UniProt O88943, A306T); assay: Whole-cell recording of KCNQ2(A306T) mutant in CHO cells; assay type: cell-based
T5 construct: expressed in transfected cells; host or cells: CHO cells
Protocol: FIG. 9. KCNQ2 point mutants selectively lose ZnPy sensitivity. […] Each mutation site was indicated based on the predicted transmembrane regions. Dashed line indicates the potentiation level of wt KCNQ2 channel in the absence of ZnPy. […] C. Modeling of the S5-pore-S6 region of KCNQ2.
(§4) FIG. 11. ZnPy effects on BFNC mutant channels expressed in CHO cells. A. whole-cell currents of KCNQ2(R207W), KCNQ2(Y284C), and KCNQ2(A306T) were recorded in the absence (left) and presence (right) of 10 μM ZnPy, Vh was −80 mV, in 10 mV voltage steps from −70 mV to +50 mV. B. a histogram plotting potentiation effects on KCNQ2 wild type (wt) and BFNC mutants (R207W, Y284C and […]) by ZnPy (filled box) and retigabine (open box) (n≧4, * p<0.001, ** p<0.05).
as §3
(§5) Electrophysiological Recording—Standard whole-cell recording was used. Pipettes were pulled from borosilicate glass capillaries (TW150-4, World Precision Instruments, Sarasota, Fla.). When filled with the intracellular solution, the pipettes have resistances of […]. During the recording, constant perfusion of extracellular solution was maintained using a BPS perfusion system (ALA, Westbury, N.Y.). Pipette solution contained (mM): KCl 145, MgCl2 1, EGTA 5, HEPES 10, MgATP 5 (pH 7.3); extracellular solution contained (mM): NaCl 140, KCl 3, CaCl2 2, MgCl2 1.5, HEPES 10, glucose 10 (pH 7.4). Current and voltage were recorded using an Axopatch-200A amplifier, filtered at 1 kHz and digitized using a DigiData 1322A with pClamp 9.2 software (Axon Instruments, Foster City, Calif.). Series resistance compensation was also used and set to 60-80%.

KCNQ2(Y284C) = molecular target: T6, KCNQ2(Y284C) (Rattus norvegicus, UniProt O88943, Y284C); assay: Whole-cell recording of KCNQ2(Y284C) BFNC mutant in CHO cells; assay type: cell-based; conditions: 10 μM ZnPy
T6 construct: expressed in transfected cells; host or cells: CHO cells, transient
Protocol: as §4, §3
as §5, with “Series resistance compensation was also used and set to 60-80%.” left out

M-current = assay: Native M-current in isolated dorsal root ganglion neurons; assay type: cell-based, rat; conditions: 10 μM ZnPy
Protocol: FIG. 10. ZnPy potentiation of native M-current. A. M current recorded from an isolated rat dorsal root ganglion neuron, Vh was −60 mV, stepped to −20 mV, followed by a step to −50 mV, and stepped back to −20 mV. B. Histograms show M-current amplitudes in the presence and absence of 10 μM ZnPy (n=10, * p<0.001). M-current amplitudes were measured by fitting the IM relaxation with an exponential equation. The recording bath solution includes 1 μM TTX, 0.2 mM TEA, 1 mM 4-AP, 50 μM CNQX, and 10 μM bicuculline. C. Membrane potential of an isolated hippocampal neuron was monitored when 10 μM ZnPy was applied in bath solution followed by the addition of 15 μM linopirdine. D. Action potentials elicited by 200 pA current injection to a patched hippocampal neuron. The ZnPy treatments are as indicated.
Neuron Culture—Dorsal root ganglia (DRG) was collected from fourteen-day-old CD rat and incubated in collagenase (sigma, 500 U/ml, 15 min) and then trypsin (Sigma, 1 mg/ml, 30 min) at 37° C. Single DRG neurons were isolated by mechanical trituration with a fire-polished glass Pasteur pipette. […]
as §2

T2 sequence (Q00975 whole entry): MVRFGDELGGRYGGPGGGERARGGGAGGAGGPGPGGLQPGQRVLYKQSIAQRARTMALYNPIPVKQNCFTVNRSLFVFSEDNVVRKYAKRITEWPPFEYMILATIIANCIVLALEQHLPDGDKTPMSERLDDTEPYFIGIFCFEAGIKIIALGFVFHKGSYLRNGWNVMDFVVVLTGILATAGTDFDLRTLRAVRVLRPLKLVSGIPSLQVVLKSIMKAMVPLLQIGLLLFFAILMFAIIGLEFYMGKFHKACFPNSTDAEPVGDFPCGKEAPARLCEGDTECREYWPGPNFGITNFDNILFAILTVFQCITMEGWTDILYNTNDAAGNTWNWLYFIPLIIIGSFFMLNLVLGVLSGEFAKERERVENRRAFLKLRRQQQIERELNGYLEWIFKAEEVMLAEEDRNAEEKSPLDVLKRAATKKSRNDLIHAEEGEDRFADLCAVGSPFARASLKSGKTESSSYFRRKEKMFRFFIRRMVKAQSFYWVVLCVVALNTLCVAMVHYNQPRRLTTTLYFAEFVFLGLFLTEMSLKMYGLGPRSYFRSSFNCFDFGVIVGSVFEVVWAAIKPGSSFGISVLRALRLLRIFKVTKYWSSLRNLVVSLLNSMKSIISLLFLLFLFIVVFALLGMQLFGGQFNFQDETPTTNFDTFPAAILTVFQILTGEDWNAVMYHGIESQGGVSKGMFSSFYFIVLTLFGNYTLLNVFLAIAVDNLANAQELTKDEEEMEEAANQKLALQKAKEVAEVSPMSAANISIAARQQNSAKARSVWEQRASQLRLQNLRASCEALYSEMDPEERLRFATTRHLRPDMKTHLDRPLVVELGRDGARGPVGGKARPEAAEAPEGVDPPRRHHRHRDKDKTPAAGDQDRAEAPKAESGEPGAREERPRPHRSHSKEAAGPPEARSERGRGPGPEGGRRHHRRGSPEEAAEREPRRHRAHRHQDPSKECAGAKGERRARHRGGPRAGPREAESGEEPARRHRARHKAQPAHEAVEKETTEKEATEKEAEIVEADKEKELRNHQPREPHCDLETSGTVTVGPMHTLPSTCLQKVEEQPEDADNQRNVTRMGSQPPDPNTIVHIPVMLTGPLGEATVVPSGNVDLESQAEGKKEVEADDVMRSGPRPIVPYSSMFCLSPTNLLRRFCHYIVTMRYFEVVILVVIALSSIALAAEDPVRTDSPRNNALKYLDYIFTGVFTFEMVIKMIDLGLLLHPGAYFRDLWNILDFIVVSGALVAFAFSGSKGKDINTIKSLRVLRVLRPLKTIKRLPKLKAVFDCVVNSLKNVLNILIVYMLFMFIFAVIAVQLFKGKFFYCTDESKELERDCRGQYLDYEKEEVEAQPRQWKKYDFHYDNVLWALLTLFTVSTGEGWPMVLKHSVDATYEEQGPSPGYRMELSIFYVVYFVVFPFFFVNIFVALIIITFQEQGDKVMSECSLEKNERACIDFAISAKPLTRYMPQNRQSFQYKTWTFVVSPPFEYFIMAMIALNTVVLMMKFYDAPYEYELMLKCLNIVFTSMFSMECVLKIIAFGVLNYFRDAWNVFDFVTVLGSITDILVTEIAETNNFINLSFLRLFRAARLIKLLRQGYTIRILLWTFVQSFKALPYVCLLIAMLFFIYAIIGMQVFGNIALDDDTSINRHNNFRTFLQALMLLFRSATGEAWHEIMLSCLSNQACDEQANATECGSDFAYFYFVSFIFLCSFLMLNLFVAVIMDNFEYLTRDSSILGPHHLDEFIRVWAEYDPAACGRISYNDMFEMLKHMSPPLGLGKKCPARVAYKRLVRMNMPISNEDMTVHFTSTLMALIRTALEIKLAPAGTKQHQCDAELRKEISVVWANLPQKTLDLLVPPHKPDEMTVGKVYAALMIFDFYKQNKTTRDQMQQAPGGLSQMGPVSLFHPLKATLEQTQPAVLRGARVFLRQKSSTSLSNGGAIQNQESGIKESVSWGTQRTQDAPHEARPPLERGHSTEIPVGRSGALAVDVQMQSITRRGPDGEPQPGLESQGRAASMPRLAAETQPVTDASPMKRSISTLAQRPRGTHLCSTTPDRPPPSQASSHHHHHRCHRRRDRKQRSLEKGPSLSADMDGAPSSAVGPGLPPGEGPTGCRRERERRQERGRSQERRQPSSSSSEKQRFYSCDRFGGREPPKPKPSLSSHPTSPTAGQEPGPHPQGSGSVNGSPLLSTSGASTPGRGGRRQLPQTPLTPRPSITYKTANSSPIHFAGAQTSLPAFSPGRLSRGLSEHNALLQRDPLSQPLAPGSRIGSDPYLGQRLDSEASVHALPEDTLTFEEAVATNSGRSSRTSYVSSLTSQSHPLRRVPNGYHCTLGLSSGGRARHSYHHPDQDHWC
T2 sequence (P54284 whole entry partner): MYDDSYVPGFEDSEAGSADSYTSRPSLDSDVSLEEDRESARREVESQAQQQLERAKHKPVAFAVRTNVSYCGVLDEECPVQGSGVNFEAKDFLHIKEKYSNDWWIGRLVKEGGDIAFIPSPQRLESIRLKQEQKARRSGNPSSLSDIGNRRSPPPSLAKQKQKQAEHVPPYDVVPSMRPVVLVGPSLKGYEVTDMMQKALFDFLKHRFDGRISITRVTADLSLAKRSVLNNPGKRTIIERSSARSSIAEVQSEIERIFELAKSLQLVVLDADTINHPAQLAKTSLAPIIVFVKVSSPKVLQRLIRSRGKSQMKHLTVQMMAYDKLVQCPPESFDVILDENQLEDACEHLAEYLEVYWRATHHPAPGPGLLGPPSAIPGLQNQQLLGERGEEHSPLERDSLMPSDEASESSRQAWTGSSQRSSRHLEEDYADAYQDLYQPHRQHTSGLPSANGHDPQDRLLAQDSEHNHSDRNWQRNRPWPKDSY
T2 sequence (P54289 25-946 partner limits assumed): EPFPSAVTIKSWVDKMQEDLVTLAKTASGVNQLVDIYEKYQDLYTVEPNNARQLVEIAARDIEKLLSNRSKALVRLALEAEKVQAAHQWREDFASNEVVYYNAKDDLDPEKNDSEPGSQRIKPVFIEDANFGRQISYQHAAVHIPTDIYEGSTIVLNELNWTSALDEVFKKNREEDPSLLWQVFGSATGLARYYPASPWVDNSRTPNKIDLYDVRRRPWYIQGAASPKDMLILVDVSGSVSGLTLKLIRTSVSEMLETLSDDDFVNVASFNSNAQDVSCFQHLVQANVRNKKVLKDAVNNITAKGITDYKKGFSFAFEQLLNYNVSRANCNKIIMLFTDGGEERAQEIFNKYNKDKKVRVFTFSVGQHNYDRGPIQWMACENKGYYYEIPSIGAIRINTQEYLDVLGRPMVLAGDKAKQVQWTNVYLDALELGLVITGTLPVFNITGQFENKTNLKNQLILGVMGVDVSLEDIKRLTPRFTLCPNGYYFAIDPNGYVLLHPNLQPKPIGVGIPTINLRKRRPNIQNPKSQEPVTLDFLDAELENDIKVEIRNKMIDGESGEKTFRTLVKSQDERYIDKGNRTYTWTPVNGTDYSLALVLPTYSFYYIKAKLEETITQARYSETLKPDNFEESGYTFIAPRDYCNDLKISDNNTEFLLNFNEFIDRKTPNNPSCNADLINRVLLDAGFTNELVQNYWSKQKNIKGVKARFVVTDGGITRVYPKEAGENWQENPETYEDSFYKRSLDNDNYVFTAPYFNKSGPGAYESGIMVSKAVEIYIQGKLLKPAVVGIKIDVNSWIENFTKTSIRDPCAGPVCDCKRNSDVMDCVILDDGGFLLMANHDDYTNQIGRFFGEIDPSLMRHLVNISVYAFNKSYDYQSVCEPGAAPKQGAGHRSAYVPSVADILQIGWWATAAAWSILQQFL
T2 sequence (P54289 947-1103 partner limits assumed): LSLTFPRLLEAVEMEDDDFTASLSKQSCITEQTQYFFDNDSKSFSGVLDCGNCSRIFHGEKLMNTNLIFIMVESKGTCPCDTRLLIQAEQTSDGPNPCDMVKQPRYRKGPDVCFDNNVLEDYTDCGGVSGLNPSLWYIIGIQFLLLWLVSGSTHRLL
T1 sequence (Q12809 whole entry): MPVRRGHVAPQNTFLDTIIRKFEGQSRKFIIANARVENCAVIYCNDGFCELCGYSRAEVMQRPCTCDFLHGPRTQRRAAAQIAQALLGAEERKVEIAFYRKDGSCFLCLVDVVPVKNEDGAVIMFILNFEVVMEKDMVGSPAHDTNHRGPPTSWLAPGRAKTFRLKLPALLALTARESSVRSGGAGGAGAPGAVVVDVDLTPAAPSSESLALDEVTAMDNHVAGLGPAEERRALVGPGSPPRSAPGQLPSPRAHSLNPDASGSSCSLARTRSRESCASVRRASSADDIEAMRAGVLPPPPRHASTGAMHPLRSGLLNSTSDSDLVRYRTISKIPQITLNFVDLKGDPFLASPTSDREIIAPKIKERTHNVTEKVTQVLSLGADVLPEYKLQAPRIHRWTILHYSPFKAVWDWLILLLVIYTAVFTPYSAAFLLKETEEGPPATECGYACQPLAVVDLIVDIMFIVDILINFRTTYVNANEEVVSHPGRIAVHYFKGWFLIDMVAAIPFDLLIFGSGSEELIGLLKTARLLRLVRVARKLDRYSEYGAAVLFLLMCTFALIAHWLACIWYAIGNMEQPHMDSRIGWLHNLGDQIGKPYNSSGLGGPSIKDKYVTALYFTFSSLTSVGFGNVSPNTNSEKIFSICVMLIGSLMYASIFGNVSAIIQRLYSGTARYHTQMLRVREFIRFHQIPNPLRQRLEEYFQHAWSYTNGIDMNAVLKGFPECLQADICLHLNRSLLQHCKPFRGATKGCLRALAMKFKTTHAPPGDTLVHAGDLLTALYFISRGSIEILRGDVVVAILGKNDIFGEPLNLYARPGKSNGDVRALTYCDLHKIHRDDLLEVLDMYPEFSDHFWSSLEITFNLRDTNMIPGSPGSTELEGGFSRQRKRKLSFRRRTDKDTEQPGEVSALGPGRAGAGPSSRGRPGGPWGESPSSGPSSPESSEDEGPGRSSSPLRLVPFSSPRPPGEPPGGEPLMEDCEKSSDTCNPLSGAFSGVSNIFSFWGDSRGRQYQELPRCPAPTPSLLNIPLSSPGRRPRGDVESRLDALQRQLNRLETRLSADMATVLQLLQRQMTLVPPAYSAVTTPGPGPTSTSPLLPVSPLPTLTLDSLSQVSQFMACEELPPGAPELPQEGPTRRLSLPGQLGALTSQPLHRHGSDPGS

## S=c1ccccn1[O][Zn][O]n1ccccc1=S [ZnPy, Zinc Pyrithione]
[1]
  potentiation of channel activity: did not potentiate
N-type calcium channel
  potentiation of channel activity: did not potentiate
KCNQ4
  effect on channel activity: potentiated
KCNQ2 (W236L)
  sensitivity of mutant to compound: comparable sensitivity to KCNQ2 wild type; also recorded: fully effective in potentiating
[2]
  neuroprotection: protection against cell loss in the selectively vulnerable zone of the CA1 region of the hippocampus
KCNQ2(A306T); 10 μM ZnPy
  effectiveness of current increase: less effective
KCNQ2(A306T); ZnPy
  hyperpolarizing shift of V1/2: 24.1±3.1 mV
  potentiation in Gmax: little potentiation in Gmax
KCNQ2(Y284C)
  fold current increase: more than 3 fold
M-current
  potentiation of M-current amplitude: 1.9 fold
